Kd data for one compound are collected here from publication PMC12797721 (Cell Communication and Signaling : CCS, 2025).

Each structure is given as a SMILES string.

The target in test [1] is C18ORF32 (Homo sapiens, UniProt Q8TCD1). The test is described as follows: isothermal titration calorimetry. It counts as binding.
For test [2], the target named is C18ORF32 (Homo sapiens, UniProt Q8TCD1, F19A/Y16A/Y23A/Y25A). Put plainly: isothermal titration calorimetry. The class given is binding. Background: ITC needs no label: the signal is the heat of the interaction.
Chain of C18ORF32 (Homo sapiens, UniProt Q8TCD1, F19A/Y16A/Y23A/Y25A) (Q8TCD1 whole entry Y16A/F19A/Y23A/Y25A): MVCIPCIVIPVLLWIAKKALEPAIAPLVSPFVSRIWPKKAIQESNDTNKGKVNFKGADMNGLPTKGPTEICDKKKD

Chain of C18ORF32 (Homo sapiens, UniProt Q8TCD1) (Q8TCD1 whole entry): as the sequence (Q8TCD1 whole entry Y16A/F19A/Y23A/Y25A) above, with A16Y, A19F, A23Y, A25Y counted along it

Regarding `C[N+](C)(C)CCO` [choline], the Kd was found to be 0.0678 µM at C18ORF32 [1] and 557 µM on C18ORF32 [2].

What is called Kd is the concentration at which binding is half-saturated. Low readings indicate tighter binding, high ones weaker binding.
